Consider 10 molecules from ChEMBL document CHEMBL5500424, “New Strategies for Responding to SARS-CoV-2: The Present and Future of Dual-Target Drugs” (J Med Chem, 2024).

The nature of experiment [1]: Inhibition of N-terminal 6His-tagged SARS-CoV nsp14 N7-methyltransferase activity expressed in Escherichia coli using GpppAC4 synthetic RNA and [3H]-SAM as substrate incubated for 30 mins in presence of SAM by Liquid scintillation analysis. Details: species or system Severe acute respiratory syndrome-related coronavirus.
Experiment [2] can be described thus: Inhibition of SARS-CoV-2 nsp16 (1 to 298 residues) expressed in Escherichia coli BL21(DE3)RIL cells using RNA and [3H]SAM as substrate incubated for 1 hrs by SPA-based assay. Details: species or system Severe acute respiratory syndrome coronavirus 2.
The target of experiment [3] is T1, Replicase polyprotein 1ab (Severe acute respiratory syndrome coronavirus 2, UniProt P0DTD1). The experiment can be described thus: Inhibition of SARS-CoV-2 main protease by FRET assay.
Experiment [4] concerns the target T1, Replicase polyprotein 1ab. The experiment can be described thus: Inhibition of C-terminal His-tagged SARS-CoV-2 PLpro BetaCoV/Wuhan/WIV04/2019 expressed in Escherichia coli BL21(DE3) using ISG-AMC substrate incubated for 3 hrs by FRET analysis.
Experiment [5] relates to SARS-CoV-2. The experiment is described as follows: Antiviral activity against SARS CoV-2 USA-WA1/2020 infected in African green monkey Vero E6 cells assessed as reduction in viral plaque formation incubated for 3 days by plaque reduction neutralization assay. The format is functional, organism-based. The settings on record: Severe acute respiratory syndrome coronavirus 2, USA-WA1/2020, Vero C1008, 72 h. On the technique in general: Plaque reduction counts the foci of infection that form in a cell layer.

The subject of experiment [6] is SARS-CoV-2. The experiment is described as follows: Antiviral activity against SARS-CoV-2 infected in African green monkey Vero E6 cells assessed as inhibition of virus growth. Type of experiment: functional, organism-based. The note with it: Severe acute respiratory syndrome coronavirus 2, Vero C1008.
In experiment [7] the target is T1, Replicase polyprotein 1ab. The experiment can be described thus: Inhibition of recombinant SARS-CoV-2 PLpro expressed in Escherichia coli BL21 (DE3) using Arg-Leu-Arg-Gly-Gly-AMC as substrate preincubated for 5 mins followed by substrate addition measured after 6 mins by fluorescence based assay.
Another experiment deals with Furin (Homo sapiens, UniProt P09958). The experiment is described as follows: Inhibition of furin (unknown origin).
Chain of Furin (P09958 whole entry): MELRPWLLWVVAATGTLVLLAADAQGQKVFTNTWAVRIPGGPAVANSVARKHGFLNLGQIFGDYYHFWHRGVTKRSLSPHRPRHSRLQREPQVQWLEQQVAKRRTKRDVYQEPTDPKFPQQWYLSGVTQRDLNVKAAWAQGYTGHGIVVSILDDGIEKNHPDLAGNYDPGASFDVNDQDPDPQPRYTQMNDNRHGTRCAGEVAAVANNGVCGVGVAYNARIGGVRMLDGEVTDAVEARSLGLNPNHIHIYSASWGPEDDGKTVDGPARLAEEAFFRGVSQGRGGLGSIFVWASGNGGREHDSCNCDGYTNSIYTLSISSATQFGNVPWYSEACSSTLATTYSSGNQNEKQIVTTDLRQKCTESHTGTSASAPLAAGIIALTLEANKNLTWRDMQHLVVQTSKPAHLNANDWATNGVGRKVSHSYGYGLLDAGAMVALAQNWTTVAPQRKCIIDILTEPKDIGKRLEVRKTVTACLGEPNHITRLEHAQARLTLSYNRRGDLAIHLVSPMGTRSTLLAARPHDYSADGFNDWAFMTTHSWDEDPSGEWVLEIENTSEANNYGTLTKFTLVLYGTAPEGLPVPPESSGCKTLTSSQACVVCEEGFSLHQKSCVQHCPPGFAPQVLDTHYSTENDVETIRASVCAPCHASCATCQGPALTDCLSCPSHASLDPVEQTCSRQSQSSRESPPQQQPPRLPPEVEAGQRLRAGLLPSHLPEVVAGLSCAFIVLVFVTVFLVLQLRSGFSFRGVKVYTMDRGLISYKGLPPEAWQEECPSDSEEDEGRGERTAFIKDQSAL
Experiment [8] deals with SARS-CoV-2. The experiment can be described thus: microbe, parasite or virus in culture. The note with it: Severe acute respiratory syndrome coronavirus 2, Vero, 24 h.
Experiment [9] concerns the target T1, Replicase polyprotein 1ab. The experiment is described as follows: Inhibition of recombinant SARS-CoV-2 Main protease by FRET analysis.

The term IC50 denotes the concentration needed to halve the response being measured. For `N#Cc1cn([C@@H]2O[C@H](CSCC[C@H](N)C(=O)O)[C@@H](O)[C@H]2O)c2ncnc(N)c12`, the IC50 came out at 70 nM in experiment [1] and 1200 nM in [2].

Regarding `CCOC(=O)/C=C/[C@H](C[C@@H]1CCNC1=O)NC(=O)[C@H](Cc1ccccc1)NC(=O)[C@@H](Cc1ccc(F)cc1)NC(=O)OC(C)(C)C`, the IC50 worked out at 1800 nM in [3] and 60 nM in experiment [4].

In the case of `CCOC(=O)/C=C/[C@H](C[C@@H]1CCNC1=O)NC(=O)[C@H](Cc1ccccc1)NC(=O)[C@H](N)Cc1ccccc1`, the IC50 in experiment [4] worked out at 60 nM.

For the molecule `Nc1ncnc2c1ncn2[C@@H]1O[C@H](C[C@@H](CO)CC[C@H](N)C(=O)O)[C@@H](O)[C@H]1O`, the results for the IC50 in experiment [1] and in [2] were 190 nM and 3400 nM, respectively.

Broadly, the EC50 is the concentration giving half of the maximal effect. As to `CCCCCCCCCCCCCCCc1cccc(O)c1C(=O)O` [ANACARDIC ACID], in the experiment with SARS-CoV-2 [5], the EC50 came out at 9000 nM.

In the case of `CC(C)[C@H](NC(=O)[C@H](CCCNC(=N)N)NC(=O)N[C@@H](Cc1ccccc1)C(=O)O)C(=O)N[C@H](C=O)CCCNC(=N)N` [ANTIPAIN], in the experiment on SARS-CoV-2 [6], the 50% effective concentration (EC50) was 640 nM. For the same molecule, the 50% inhibitory concentration (IC50) in experiment [7] is 3 nM.

As for `N=C(N)c1ccc(/N=N/Nc2ccc(C(=N)N)cc2)cc1` [DIMINAZENE], the IC50 on Furin amounted to 580 nM.

In the case of `CCCCCC/C=C\CCCCCCCc1cccc(O)c1C(=O)O` [GINGKOLIC ACID], the concentration giving a half-maximal response (EC50) in the experiment with SARS-CoV-2 [5] worked out at 8300 nM.

The molecule `N=C(N)Nc1ccc(C(=O)Oc2ccc3cc(C(=N)N)ccc3c2)cc1` [NAFAMOSTAT] returned an EC50 with SARS-CoV-2 [8] of 10 nM.

As to `O=C(OC[C@H]1O[C@@H](OC(=O)c2cc(O)c(O)c(OC(=O)c3cc(O)c(O)c(O)c3)c2)[C@H](OC(=O)c2cc(O)c(O)c(OC(=O)c3cc(O)c(O)c(O)c3)c2)[C@@H](OC(=O)c2cc(O)c(O)c(OC(=O)c3cc(O)c(O)c(O)c3)c2)[C@@H]1OC(=O)c1cc(O)c(O)c(OC(=O)c2cc(O)c(O)c(O)c2)c1)c1cc(O)c(O)c(OC(=O)c2cc(O)c(O)c(O)c2)c1` [TANNIC ACID], the half-maximal inhibitory concentration (IC50) in [9] was 13200 nM.
